# Values joined by “and” are separate entries in the source; they are usually repeats but may differ in a detail not shown here. Identical values can stand only once. Inconclusive results are not listed.
# Test system: BDF1 mice, B16 melanoma s.c., survival/tumor T/C
# Test: NCI In Vivo Anticancer Drug Screen. Data for tumor model B16 Melanoma (subcutaneous) in B6D2F1 (BDF1) mice
# Settings: endpoint: median survival time, higher = longer survival
# Experimental: The antitumor activity of compounds was measured in mice bearing transplantable tumors. Survival or tumor size were measured and the results are expressed as the measurement made in the treated group (T) divided by the measurement made in the vehicle treated control group (C). The tumor model used in this assay is B16 Melanoma (subcutaneous) in B6D2F1 (BDF1) mice
structure (smiles),measurement,setting,value
CC1(C)N=C(N)N=C(N)N1c1ccc(CCCCc2ccc(Cl)c(S(=O)(=O)F)c2)c(Cl)c1,T/C,"dose: 8.0 mg/kg/injection, schedule: Q01DX009 (ip), vehicle: saline",119 % of control
same,T/C,"dose: 12.0 mg/kg/injection, schedule: Q01DX009 (ip), vehicle: saline",110 % of control
same,T/C,"dose: 18.0 mg/kg/injection, schedule: Q01DX009 (ip), vehicle: saline",107 % of control
same,T/C,"dose: 27.0 mg/kg/injection, schedule: Q01DX009 (ip), vehicle: saline",94 % of control
O=c1[nH]c(=O)n(C2CC(O)C(CO)O2)cc1C(F)(F)F (configuration not stated),T/C,"dose: 10.0 mg/kg/injection, schedule: Q01DX009 (ip), vehicle: saline",103 % of control
same,T/C,"dose: 20.0 mg/kg/injection, schedule: Q01DX009 (ip), vehicle: saline",104 % of control and 111 % of control
same,T/C,"dose: 40.0 mg/kg/injection, schedule: Q01DX009 (ip), vehicle: saline",106 % of control
same,T/C,"dose: 80.0 mg/kg/injection, schedule: Q01DX009 (ip), vehicle: saline",89 % of control
same,T/C,"dose: 160.0 mg/kg/injection, schedule: Q01DX009 (ip), vehicle: saline",111 % of control
CC1(C)N=C(N)N=C(N)N1c1ccc(CCC(=O)Nc2ccc(S(=O)(=O)F)cc2)c(Cl)c1,T/C,"dose: 6.25 mg/kg/injection, schedule: Q01DX009 (ip), vehicle: saline",108 % of control
same,T/C,"dose: 12.5 mg/kg/injection, schedule: Q01DX009 (ip), vehicle: saline",103 % of control
same,T/C,"dose: 25.0 mg/kg/injection, schedule: Q01DX009 (ip), vehicle: saline",114 % of control
Cc1c(N)nc(C(CC(N)=O)NCC(N)C(N)=O)nc1C(=O)NC(C(=O)NC(C)C(O)C(C)C(=O)NC(C(=O)NCCc1nc(-c2nc(C(=O)NCCCNC(C)c3ccccc3)cs2)cs1)C(C)O)C(OC1OC(CO)C(O)C(O)C1OC1OC(CO)C(O)C(OC(N)=O)C1O)c1cnc[nH]1 (configuration not stated),T/C,"dose: 0.13 mg/kg/injection, schedule: Q01DX010 (ip), vehicle: water",97 % of control
same,T/C,"dose: 0.25 mg/kg/injection, schedule: Q01DX009 (ip), vehicle: water",105 % of control and 120 % of control
same,T/C,"dose: 0.25 mg/kg/injection, schedule: Q01DX010 (ip), vehicle: water",97 % of control
same,T/C,"dose: 0.5 mg/kg/injection, schedule: Q01DX009 (ip), vehicle: water",100 % of control
same,T/C,"dose: 0.5 mg/kg/injection, schedule: Q01DX010 (ip), vehicle: water",124 % of control
same,T/C,"dose: 1.0 mg/kg/injection, schedule: Q01DX009 (ip), vehicle: water",184 % of control
same,T/C,"dose: 1.0 mg/kg/injection, schedule: Q01DX010 (ip), vehicle: water",112 % of control
same,T/C,"dose: 2.0 mg/kg/injection, schedule: Q01DX010 (ip), vehicle: water",112 % of control
same,T/C,"dose: 4.0 mg/kg/injection, schedule: Q01DX010 (ip), vehicle: water",98 % of control
same,T/C,"dose: 8.0 mg/kg/injection, schedule: Q01DX009 (ip), vehicle: water",106 % of control
CC(=O)Oc1ccccc1C(=O)O,T/C,"dose: 32.0 mg/kg/injection, schedule: Q01DX009 (ip), vehicle: saline",95 % of control
same,T/C,"dose: 64.0 mg/kg/injection, schedule: Q01DX009 (ip), vehicle: saline",88 % of control
same,T/C,"dose: 256.0 mg/kg/injection, schedule: Q01DX009 (ip), vehicle: saline",116 % of control
CC(=O)O[C@H]1C(=O)[C@@]2(C)[C@H]([C@H](OC(=O)c3ccccc3)[C@]3(O)C[C@H](OC(=O)[C@H](O)[C@@H](NC(=O)c4ccccc4)c4ccccc4)C(C)=C1C3(C)C)[C@]1(OC(C)=O)CO[C@@H]1C[C@@H]2O,T/C,"dose: 1.32 mg/kg/injection, schedule: Q01DX009 (ip), vehicle: Klucel (hydroxypropylcellulose) (HPC)",91 % of control
same,T/C,"dose: 1.32 mg/kg/injection, schedule: Q01DX009 (ip), vehicle: other",100 % of control
same,T/C,"dose: 1.98 mg/kg/injection, schedule: Q01DX009 (ip), vehicle: Klucel (hydroxypropylcellulose) (HPC)",95 % of control
same,T/C,"dose: 1.98 mg/kg/injection, schedule: Q01DX009 (ip), vehicle: other",88 % of control
same,T/C,"dose: 2.96 mg/kg/injection, schedule: Q01DX009 (ip), vehicle: Klucel (hydroxypropylcellulose) (HPC)",116 % of control
same,T/C,"dose: 2.96 mg/kg/injection, schedule: Q01DX009 (ip), vehicle: other",88 % of control
same,T/C,"dose: 4.0 mg/kg/injection, schedule: Q01DX009 (ip), vehicle: Klucel (hydroxypropylcellulose) (HPC)",93 % of control
same,T/C,"dose: 4.44 mg/kg/injection, schedule: Q01DX009 (ip), vehicle: other",123 % of control
same,T/C,"dose: 6.0 mg/kg/injection, schedule: Q01DX009 (ip), vehicle: Klucel (hydroxypropylcellulose) (HPC)",97 % of control
same,T/C,"dose: 6.67 mg/kg/injection, schedule: Q01DX009 (ip), vehicle: Klucel (hydroxypropylcellulose) (HPC)",117 % of control
same,T/C,"dose: 9.0 mg/kg/injection, schedule: Q01DX009 (ip), vehicle: Klucel (hydroxypropylcellulose) (HPC)",93 % of control
same,T/C,"dose: 11.0 mg/kg/injection, schedule: Q04DX003 (ip), vehicle: Klucel (hydroxypropylcellulose) (HPC)",102 % of control
same,T/C,"dose: 13.0 mg/kg/injection, schedule: Q01DX001 (ip), vehicle: Klucel (hydroxypropylcellulose) (HPC)",97 % of control
same,T/C,"dose: 16.0 mg/kg/injection, schedule: Q04DX003 (ip), vehicle: Klucel (hydroxypropylcellulose) (HPC)",91 % of control
same,T/C,"dose: 20.0 mg/kg/injection, schedule: Q01DX001 (ip), vehicle: Klucel (hydroxypropylcellulose) (HPC)",122 % of control
same,T/C,"dose: 24.0 mg/kg/injection, schedule: Q04DX003 (ip), vehicle: Klucel (hydroxypropylcellulose) (HPC)",93 % of control
same,T/C,"dose: 30.0 mg/kg/injection, schedule: Q01DX001 (ip), vehicle: Klucel (hydroxypropylcellulose) (HPC)",106 % of control

# From PubChem BioAssay AID194 (DTP/NCI, 2004)
